Like-named read-outs stand apart in the source and are kept apart here.
How the values were obtained:
yam tyrosinase [1] = assay: Diphenolase activity assay (dopachrome at 475 nm, L-DOPA substrate); format: biochemical, Amorphophallus paeoniifolius; settings: 2 mM L-DOPA, pH 7.0, 30°C
Protocol: The reaction mixture (3 mL) contained 2 mM of L-DOPA in 50 mM potassium phosphate buffer (pH 7.0); a portion of 100 μL of the enzyme was used for the activity assay. The reaction was carried out at a constant temperature of 30°C using a Shimadzu UV visible spectrophotometer. IC50 values were calculated as per the formula reported earlier.

yam tyrosinase [2] = assay: SPR interaction kinetics of single analytes with immobilized yam tyrosinase, two-state model; format: binding, Amorphophallus paeoniifolius
Protocol: SPR interaction studies were carried out using a Biocore X100 optical biosensor (GE Healthcare Life Sciences, Uppsala, Sweden). All the SPR measurements were performed in phosphate buffer saline (PBS; 10.1 mM Na2PO4, 1.8 mM KH2PO4, 137 mM NaCl, 2.7 mM KCl, pH 7.4, 0.005% P20). Initially, working dilutions were prepared from the analyte stock solution in PBS only and then allowed to flow through the sensor surface. Biocore control software version 2.2 was used for data collection. Refractive index changes as a function of time under constant flow condition are monitored by the system, and accordingly, experiments were performed. […] There is an inline subtraction of reference surface during the run. This change is usually reported in terms of response units (RUs). The surface of the chip is washed with PBS (running buffer) between each concentration.
The method of amine coupling was employed for the immobilization of yam tyrosinase which was dissolved (50 μg/mL) in 0.1 M sodium acetate buffer with pH value 4.5 as per the pH scouting study in [15]. Yam tyrosinase was immobilized on sensor chip series S CM5. Flow cell on the chip surface was activated for 7 min using a 1 : 1 mixture of 100 mM […] (EDC) and 100 mM N-hydroxysuccinimide (NHS) (both dissolved in water), and subsequently, tyrosinase was injected for 7 min, followed by injection of 1 M ethanolamine, pH 8.5 to block nonreactive sites. For this study, flow cell 3 was blank immobilized (without protein) as reference.
Crocin and kojic acid are natural tyrosinase inhibitors, whereas hydroquinone is a synthetic inhibitor. The grouping of inhibitors was simply based on the efficiency, size, solubility, and origin of inhibitors. […] PBS was used as the running buffer. The flow rate was constant (45 μL/min) throughout the experiment. The contact time (association time) and dissociation time were fixed to 120 s. Experiments were performed with different concentrations of individual inhibitors based on their solubilities: crocin (0.156–2.5 mM), hydroquinone (0.625–10 mM), kojic acid ([…]), and L-DOPA (5–80 mM). These concentrations were optimized by repeating the SPR experiments several times to achieve appropriate binding interactions. […] Regeneration was carried out with 10 mM glycine pH 2.5 for 30 s. Binding analysis was evaluated using the heterogeneous analyte kinetics model. After each cycle of regeneration, the activity of the enzyme was checked by injecting a single concentration of L-DOPA, and RU response was observed. The data analyses were done with Biacore X100 evaluation software version 2.2, and data were fit to two-state binding and/or heterogeneous analyte binding.
Flow rate was maintained at 45 μL/min. Contact time and dissociation time were kept at 120 s and 200 s. Regeneration was carried out using 10 mM glycine HCl at pH 2.5 for 30 s and at 30 μL/min. The data analysis was performed with Biacore X100 evaluation software version 2.0.1, and data were fit to two states. Each concentration represents sensorgram in the increasing order of curves. Crocin with concentrations (0.156, 0.312, 0.625, 1.25, and 2.5 mM) was injected over the enzyme surface (a). Kojic acid with concentrations (0.0156, 0.0312, 0.0625, 0.125, and 0.25 mM) was injected over the enzyme surface (b). Hydroquinone with concentrations (0.625, 1.25, 2.5, 5.0, and 10 mM) was injected over enzyme surface (c). L-DOPA with concentrations (5, 10, 20, 40 and 80 mM) was injected over the enzyme surface (d).

yam tyrosinase [3] = biological target: yam tyrosinase; set-up: method as in PMID 29246874; settings: SPR, two-state model, substrate; cited from earlier work

| Structure (SMILES) | IC50 (yam tyrosinase [1]) | k a1 (yam tyrosinase [2]; PBS pH 7.4) | k a2 (yam tyrosinase [2]; PBS pH 7.4) | k d1 (yam tyrosinase [2]; PBS pH 7.4) | k d2 (yam tyrosinase [2]; PBS pH 7.4) | Kd (yam tyrosinase [3]) | k a1 (yam tyrosinase [3]) | k a2 (yam tyrosinase [3]) | k d1 (yam tyrosinase [3]) | k d2 (yam tyrosinase [3]) | Kd (yam tyrosinase [2]; PBS pH 7.4) | Kd (yam tyrosinase [2]; PBS pH 7.4, listed as crocin) |
| --- | --- | --- | --- | --- | --- | --- | --- | --- | --- | --- | --- | --- |
| Oc1ccc(O)cc1 [Hydroquinone, hydroquinone] | 1500 µM | 2.89 ± 0.13 M⁻¹ s⁻¹ | 0.001569 ± 3.5e-05 s⁻¹ | 0.9166 ± 0.02 s⁻¹ | 0.005185 ± 0.00013 s⁻¹ |  |  |  |  |  |  |  |
| N[C@@H](Cc1ccc(O)c(O)c1)C(=O)O [L-DOPA, L-3 dihydroxyphenylalanine] |  |  |  |  |  | 1.35 µM | 9.54 × 10^4 1/ms | 0.001544 ± 1.50 × 10^4 1/s | 0.5089 ± 0.085 s⁻¹ | 0.000523 ± 8.4e-05 s⁻¹ |  |  |
| O=c1cc(CO)occ1O [Kojic acid] | 0.1 µM | 334 ± 16 M⁻¹ s⁻¹ | 0.00539 ± 7.8e-05 s⁻¹ | 0.03182 ± 0.0013 s⁻¹ |  |  |  |  |  |  | 6.39 µM |  |
| CC(/C=C/C=C(\C)C(=O)O[C@@H]1O[C@H](CO[C@@H]2O[C@H](CO)[C@@H](O)[C@H](O)[C@H]2O)[C@@H](O)[C@H](O)[C@H]1O)=C\C=C\C=C(C)\C=C\C=C(/C)C(=O)O[C@@H]1O[C@H](CO[C@@H]2O[C@H](CO)[C@@H](O)[C@H](O)[C@H]2O)[C@@H](O)[C@H](O)[C@H]1O [Crocin, crocin] | 1000 µM | 224 ± 11 M⁻¹ s⁻¹ | 0.003525 ± 9.7e-05 s⁻¹ | 0.5772 ± 0.025 s⁻¹ | 0.006429 ± 0.00014 s⁻¹ |  |  |  |  |  | 1660 µM | 1700 µM |
